Experimental data reported in US20200405696A1, “INHIBITORS OF INDOLEAMINE 2,3-DIOXYGENASE AND/OR TRYPTOPHAN 2,3-DIOXYGENASE” (IDORSIA PHARMACEUTICALS LTD, priority 2018, published 2020).

Tests used:
[1] = biological target: T1, Recombinant human TDO comprising amino acids 19-407 (Homo sapiens, UniProt P48775); assay: TDO2 enzymatic assay (NFK quantified by LCMS); format: biochemical; conditions: 15 nM enzyme, 200 μM L-tryptophan, pH7, 30 minutes pre-incubation at RT; mean values when measured multiple times; read-out: hTDO activity (IC50 in nM)
T1 construct: Recombinant human TDO comprising amino acids 19-407 with a N-terminal hexahistidine tag; hexahistidine (His6) (N); made in house; host or cells: E. coli
Experimental: 2) Testing Compounds for TDO Inhibitory Activity in a TDO2 Enzymatic Assay:
Recombinant human TDO comprising amino acids 19-407 with a N-terminal hexahistidine tag expressed in E. coli and purified to homogeneity is incubated at a final concentration of 15 nM in assay buffer consisting of 75 mM phosphate buffer at pH7 supplemented with 100 μM ascorbic acid, 50U/ml Catalase, 0.01% BSA, and 0.01% Tween 20 (protocol modified from Seegers et al, JBS 2014). Example compounds are serially diluted in DMSO, further diluted in phosphate buffer, and added to the reaction mixture at final concentrations ranging from 10 μM to 0.5 nM. The final DMSO concentration is 0.6%. Following a pre-incubation of 30 minutes at RT, the reaction is started by the addition of L-tryptophan at a final concentration of 200 μM in assay buffer. After 30 minutes of incubation at RT, 3 μL of the reaction mixture are transferred to a 384 deep well plate containing 25 μL of deionized water. 100 μl of 200 nM L-Tryptophan-(indole-d5) in cold 100% methanol are added followed by a 10 minutes centrifugation at 3220×g at 4° C. An additional 75 μL of deionized water are then added followed by a 10 minutes centrifugation at 3220×g at 4° C. The product of the reaction N′-Formylkynurenine (NFK) is quantified by LCMS and normalized to the L-Tryptophan-(indole-d5) signal. Samples with 0.6% DMSO (0% effect) and a TDO/IDO inhibitor (100% effect) are used as control samples to set the parameters for the non-linear regression necessary for the determination of the half-maximal inhibitory concentration (IC50) for each compound. For each compound concentration the percentage of activity compared to 0% and 100% effect is calculated as average±STDEV (each concentration measured in duplicate). IC50 values and curves are generated with XLfit software (IDBS) using Dose-Response One Site model 203 (four parameter logistic curve model). The calculated IC50 values may fluctuate depending on the daily assay performance. Fluctuations of this kind are known to those skilled in the art. When compounds are measured multiple times, mean values are given.

[2] = biological target: T2, Recombinant full-length human IDO1 (Homo sapiens, UniProt P14902); assay: IDO1 enzymatic assay (NFK quantified by LCMS); format: biochemical; conditions: 2 nM enzyme, 5 μM L-tryptophan, pH6.5, 30 minutes pre-incubation at RT; mean values when measured multiple times; read-out: hIDO activity (IC50 in nM)
T2 construct: Recombinant full-length human IDO1 with a N-terminal hexahistidine tag; hexahistidine (His6) (N); made in house; host or cells: E. coli
Experimental: 1) Testing Compounds for IDO Inhibitory Activity in an IDO1 Enzymatic Assay:
Recombinant full-length human IDO1 with a N-terminal hexahistidine tag expressed in E. coli and purified to homogeneity is incubated at a final concentration of 2 nM in assay buffer consisting of 37.5 mM phosphate buffer at pH6.5 supplemented with 10 mM ascorbic acid, 0.45 μM methylene blue, 50U/ml catalase, 0.01% BSA, and 0.01% Tween 20 (protocol modified from Seegers et al, JBS 2014). Example compounds are serially diluted in DMSO, further diluted in phosphate buffer, and added to the enzyme at final concentrations ranging from 10 μM to 0.5 nM. The final DMSO concentration is 0.6%. Following a pre-incubation of 30 minutes at RT, the reaction is started by the addition of L-tryptophan at a final concentration of 5 μM in assay buffer. After 30 minutes of incubation at RT, 3 μL of the 20 μl reaction mixture are transferred to a 384 deep well plate containing 25 μL of deionized water. 100 μl of 200 nM L-Tryptophan-(indole-d5) in cold 100% methanol are added followed by a 10 minutes centrifugation at 3220×g at 4° C. An additional 75 μL of deionized water are then added followed by a 10 minutes centrifugation at 3220×g at 4° C. The product of the reaction N′-Formylkynurenine (NFK) is quantified by LCMS and normalized to the L-Tryptophan-(indole-d5) signal. Samples with 0.6% DMSO (0% effect) and a TDO/IDO inhibitor (100% effect) are used as control samples to set the parameters for the non-linear regression necessary for the determination of the half-maximal inhibitory concentration (IC50) for each compound. For each compound concentration the percentage of activity compared to 0% and 100% effect is calculated as average±STDEV (each concentration measured in duplicate). IC50 values and curves are generated with XLfit software (IDBS) using Dose-Response One Site model 203 (four parameter logistic curve model). The calculated IC50 values may fluctuate depending on the daily assay performance. Fluctuations of this kind are known to those skilled in the art. When compounds are measured multiple times, mean values are given.

T1 sequence (P48775 19-406 limits assumed): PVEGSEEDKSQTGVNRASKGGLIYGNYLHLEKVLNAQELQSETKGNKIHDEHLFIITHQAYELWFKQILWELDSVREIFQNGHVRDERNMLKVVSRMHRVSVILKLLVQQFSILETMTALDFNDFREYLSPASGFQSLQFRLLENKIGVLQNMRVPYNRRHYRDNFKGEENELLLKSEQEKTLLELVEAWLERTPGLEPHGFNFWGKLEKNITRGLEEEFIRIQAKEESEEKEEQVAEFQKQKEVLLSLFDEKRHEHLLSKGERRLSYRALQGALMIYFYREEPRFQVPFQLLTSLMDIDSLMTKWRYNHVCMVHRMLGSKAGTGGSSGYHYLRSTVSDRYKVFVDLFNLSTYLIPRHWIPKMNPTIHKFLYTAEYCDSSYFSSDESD
T2 sequence (P14902 whole entry): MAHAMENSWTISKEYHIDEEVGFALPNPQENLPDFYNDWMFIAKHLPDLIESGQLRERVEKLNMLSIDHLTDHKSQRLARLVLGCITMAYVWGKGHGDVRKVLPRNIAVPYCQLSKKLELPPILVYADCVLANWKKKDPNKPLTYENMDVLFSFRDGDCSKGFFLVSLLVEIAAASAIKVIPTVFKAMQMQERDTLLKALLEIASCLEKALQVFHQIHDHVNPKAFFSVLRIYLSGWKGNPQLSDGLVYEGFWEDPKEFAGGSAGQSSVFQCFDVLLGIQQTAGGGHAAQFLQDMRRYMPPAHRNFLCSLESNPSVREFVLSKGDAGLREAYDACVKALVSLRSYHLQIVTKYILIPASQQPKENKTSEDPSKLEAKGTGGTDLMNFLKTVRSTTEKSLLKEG

| IC50 [1] | IC50 [2] | SMILES |
| --- | --- | --- |
| 8520 nM | 11.1 nM | COC(=O)Nc1ccc(-n2cc(C(O)c3c(C4CC4)sc4cncn34)nn2)cc1 (racemic) [Example 36, rac-(4-{4-[(2-Cyclopropyl-imidazo[5,1-b]thiazol-3-yl)-hydroxy-methyl]-[1,2,3]triazol-1-yl}-phenyl)-carbamic Acid Methyl Ester] |
| > 10200 nM | 175 nM | OC(c1cn(-c2ccc(CN3CCOCC3)cc2)nn1)c1c(C2CC2)sc2cncn12 (racemic) [Example 37, rac-(2-Cyclopropyl-imidazo[5,1-b]thiazol-3-yl)-[1-(4-morpholin-4-ylmethyl-phenyl)-1H-[1,2,3]triazol-4-yl]-methanol] |
| > 10200 nM | 72.7 nM | OC(c1cn(-c2ccc(N3CCOCC3)cc2)nn1)c1c(C2CC2)sc2cncn12 (racemic) [Example 38, rac-(2-Cyclopropyl-imidazo[5,1-b]thiazol-3-yl)-[1-(4-morpholin-4-yl-phenyl)-1H-[1,2,3]triazol-4-yl]-methanol] |
| > 10200 nM | 21.9 nM | OC(c1cn(-c2ccc3c(c2)OCCO3)nn1)c1c(C2CC2)sc2cncn12 (racemic) [Example 39, rac-(2-Cyclopropyl-imidazo[5,1-b]thiazol-3-yl)-[1-(2,3-dihydro-benzo[1,4]dioxin-6-yl)-1H-[1,2,3]triazol-4-yl]-methanol] |
| > 10200 nM | 68.3 nM | OCC1(c2ccc(-n3cc(C(O)c4c(C5CC5)sc5cncn45)nn3)cc2)CC1 (racemic) [Example 40, rac-(2-Cyclopropyl-imidazo[5,1-b]thiazol-3-yl)-{1-[4-(1-hydroxymethyl-cyclopropyl)-phenyl]-1H-[1,2,3]triazol-4-yl}-methanol] |
| > 10200 nM | 305 nM | OC(c1cn(-c2cn[nH]c2)nn1)c1c(C2CC2)sc2cncn12 (racemic) [Example 41, rac-(2-Cyclopropyl-imidazo[5,1-b]thiazol-3-yl)-[1-(1H-pyrazol-4-yl)-1H-[1,2,3]triazol-4-yl]-methanol] |
| > 10200 nM | 20.2 nM | CCOc1ccc(-n2cc(C(O)c3c(C4CC4)sc4cncn34)nn2)cn1 (racemic) [Example 42, rac-(2-Cyclopropyl-imidazo[5,1-b]thiazol-3-yl)-[1-(6-ethoxy-pyridin-3-yl)-1H-[1,2,3]triazol-4-yl]-methanol] |

The remaining lines, values behind:

| SMILES | IC50 [1] | IC50 [2] |
| --- | --- | --- |
| OC(c1cn(-c2cccc3ccncc23)nn1)c1c(C2CC2)sc2cncn12 (racemic) [Example 22, rac-(2-Cyclopropyl-imidazo[5,1-b]thiazol-3-yl)-(1-isoquinolin-8-yl-1H-[1,2,3]triazol-4-yl)-methanol] | > 10200 nM | 39.6 nM |
| OC(c1cn(-c2cccc3cnccc23)nn1)c1c(C2CC2)sc2cncn12 (racemic) [Example 23, rac-(2-Cyclopropyl-imidazo[5,1-b]thiazol-3-yl)-(1-isoquinolin-5-yl-1H-[1,2,3]triazol-4-yl)-methanol] | > 10200 nM | 24 nM |
| OC(c1cn(-c2cccc3ncccc23)nn1)c1c(C2CC2)sc2cncn12 (racemic) [Example 24, rac-(2-Cyclopropyl-imidazo[5,1-b]thiazol-3-yl)-(1-quinolin-5-yl-1H-[1,2,3]triazol-4-yl)-methanol] | > 10200 nM | 22.8 nM |
| OC(c1cn(-c2ccnc3ccccc23)nn1)c1c(C2CC2)sc2cncn12 (racemic) [Example 25, rac-(2-Cyclopropyl-imidazo[5,1-b]thiazol-3-yl)-(1-quinolin-4-yl-1H-[1,2,3]triazol-4-yl)-methanol] | > 10200 nM | 18.3 nM |
| OC(c1cn(-c2cncc3ccccc23)nn1)c1c(C2CC2)sc2cncn12 (racemic) [Example 26, rac-(2-Cyclopropyl-imidazo[5,1-b]thiazol-3-yl)-(1-isoquinolin-4-yl-1H-[1,2,3]triazol-4-yl)-methanol] | 4190 nM | 5.68 nM |
| OC(c1cn(-c2cccc3cc[nH]c23)nn1)c1c(C2CC2)sc2cncn12 (racemic) [Example 27, rac-(2-Cyclopropyl-imidazo[5,1-b]thiazol-3-yl)-[1-(1H-indol-7-yl)-1H-[1,2,3]triazol-4-yl]-methanol] | > 10200 nM | 24.1 nM |
| Cc1cccc(-n2cc(C(O)c3c(C4CC4)sc4cncn34)nn2)c1 (racemic) [Example 28, rac-(2-Cyclopropyl-imidazo[5,1-b]thiazol-3-yl)-(1-m-tolyl-1H-[1,2,3]triazol-4-yl)-methanol] | > 10200 nM | 28.8 nM |
| OC(c1cn(-c2ccccc2C(F)(F)F)nn1)c1c(C2CC2)sc2cncn12 (racemic) [Example 29, rac-(2-Cyclopropyl-imidazo[5,1-b]thiazol-3-yl)-[1-(2-trifluoromethyl-phenyl)-1H-[1,2,3]triazol-4-yl]-methanol] | > 10200 nM | 163 nM |
| OC(c1cn(-c2ccncc2)nn1)c1c(C2CC2)sc2cncn12 (racemic) [Example 30, rac-(2-Cyclopropyl-imidazo[5,1-b]thiazol-3-yl)-(1-pyridin-4-yl-1H-[1,2,3]triazol-4-yl)-methanol] | > 10200 nM | 63.2 nM |
| OC(c1cn(-c2ccc(OC(F)(F)F)cc2)nn1)c1c(C2CC2)sc2cncn12 (racemic) [Example 31, rac-(2-Cyclopropyl-imidazo[5,1-b]thiazol-3-yl)-[1-(4-trifluoromethoxy-phenyl)-1H-[1,2,3]triazol-4-yl]-methanol] | > 10200 nM | 108 nM |
| CCOc1ccc(-n2cc(C(O)c3c(C4CC4)sc4cncn34)nn2)cc1 (racemic) [Example 32, rac-(2-Cyclopropyl-imidazo[5,1-b]thiazol-3-yl)-[1-(4-ethoxy-phenyl)-1H-[1,2,3]triazol-4-yl]-methanol] | > 10200 nM | 5.3 nM |
| CC(C)Oc1ccc(-n2cc(C(O)c3c(C4CC4)sc4cncn34)nn2)cc1 (racemic) [Example 33, rac-(2-Cyclopropyl-imidazo[5,1-b]thiazol-3-yl)-[1-(4-isopropoxy-phenyl)-1H-[1,2,3]triazol-4-yl]-methanol] | > 10200 nM | 20 nM |
| OC(c1cn(-c2ccc(Cl)cc2)nn1)c1c(C2CC2)sc2cncn12 (racemic) [Example 34, rac-[1-(4-Chloro-phenyl)-1H-[1,2,3]triazol-4-yl]-(2-cyclopropyl-imidazo[5,1-b]thiazol-3-yl)-methanol] | > 10200 nM | 21.9 nM |
| OC(c1cn(-c2ccc(OCC3CC3)cc2)nn1)c1c(C2CC2)sc2cncn12 (racemic) [Example 35, rac-(2-Cyclopropyl-imidazo[5,1-b]thiazol-3-yl)-[1-(4-cyclopropylmethoxy-phenyl)-1H-[1,2,3]triazol-4-yl]-methanol] | > 10200 nM | 8.83 nM |
